Tests used:
MAO-B = details: literature values (ref. 45), cited from earlier work; for IC50: read-out: IC50 of MAO-B inhibition; for Ki: read-out: Ki of MAO-B inhibition
neurons = experiment: Neuroprotection against glutamate-induced apoptosis of cultured neurons (DAPI staining); assay type: cell-based; details: glutamate 100 μM plus 10 μM glycine, 30 min pre-incubation, apoptosis after 24 h
Method: The exposure of neurons to glutamate was carried according to a slightly modified method (50): culture medium was removed and neurons were washed once with prewarmed 37° C. buffered Hanks' solution (5.26 mM KCl, 0.43 mM KH2H2PO4, 132.4 mM NaCl, 4.09 mM NaHCO3, 0.33 mM Na2HPO4, 20 mM glucose, 2 mM CaCl2, and 20 mM HEPES, pH 7.4) and pre-incubated in the absence or presence of several concentrations of AFA extract (1-50 nM), PC (10-1000 nM), PCB (10-1000 nM) and MAA (1-10 μM) in prewarmed 37° C. buffered Hanks' solution. After 30 min of pre-incubation, L-glutamate was added from concentrated solutions to the final concentration indicated 100 μM plus 10 μM glycine. […]
Apoptosis was assessed by staining the nuclei of cells with DAPI (50), a membrane-permeable fluorescent dye that binds DNA and allows quantification of apoptotic neurons, i.e., neurons displaying fragmented or condensed nuclei. […] Cells were scored for chromatin condensation by fluorescence microscopy, using a fluorescein filter (330-380 excitation; 30× magnification). Total and apoptotic nuclei were counted. In all cases, approximately 600-1,000 cells were counted per well by an operator blind to the protocol design. Measurements from individual cultures were performed in duplicate and results are expressed as the mean S.E.M. values for the number of culture preparations indicated. […]

Compound	Inhibition type (MAO-B)	IC50 (MAO-B) [µM]	Ki (MAO-B) [µM]	amount lowering apoptosis below the control level (neurons)
Cc1cc(O)c2c(c1)C(=O)c1cc(O)cc(O)c1C2=O [Emodin]	Mixed	35.4	15.1	
Epicatechine	Mixed	58.9	21	
phycocyanobilin [PCB]				approximately 10 nM
Oc1cc(O)c2c(c1)OC(c1ccc(O)c(O)c1)C(O)C2 (stereo not drawn) [Catechine]	Mixed	88.6		
COc1ccc(C(C)=O)c(O)c1 [Paeonol]	Competitive	42.5	38.2	

Reference: US9522167B2, “Alphanizomenon flos aquae preparation, extracts and purified components thereof for the treatment of neurological, neurodegenerative and mood disorders” (Nutratec, s.r.l., priority 2006, dated 2016)
